Patent US20250326794A1, “ANTI-CANCER LEUCINE-RICH PEPTIDES AND USES THEREOF” (KING'S COLLEGE LONDON, priority 2019, published 2025)

Key:
[1] = ANTS/DPX liposome leakage assay, 3POPC/1POPG vesicles; assay type: biochemical; conditions: 0.5 mM vesicles; for Peptide Concentration-induced 50% ANTS/DPX leakage at pH 4.8, 3POPC/1POPG Vesicle: pH 4.8, lipid per peptide; for Peptide Concentration-induced 50% ANTS/DPX leakage at pH 7.4, 3POPC/1POPG Vesicle: pH 7.4, lipid per peptide
Method: (§1) In brief, 0.5 mM POPC vesicles (grey) or POPC:POPG vesicles (ratio 3:1, black) were incubated with peptide concentrations of 0, 0.02, 0.04, 0.08, 0.16, 0.32, 0.64, 1.25, 2.5, 5, 10, and 20 μM in each A) hydrochloric acid-adjusted phosphate buffered saline (1×, pH 4.8) and B) phosphate buffered saline (1×, pH 7.4).
(§2) The lipids 1-palmitoyl-2-oleoyl-sn-glycero-3-phosphocholine (POPC), 1-palmitoyl-2-oleoyl-snglycero-3-phospho-(1′-rac-glycerol) (POPG) were purchased from Avanti Polar Lipids and dissolved in chloroform. Large unilamellar vesicles (LUVs) were produced by extrusion through 100 nm pore filter using an extruder and filters purchased from Avanti Polar Lipids.
(§3) 5 mM ANTS (8-aminonaphthalene-1,3,6-trisulfonic acid, disodium salt) and 12.5 mM DPX (p-xylene-bis-pyridinium bromide) were entrapped in 0.1 μm diameter extruded vesicles with lipids. Gel filtration chromatography using a Sephadex G-100 (GE Healthcare Life Sciences Inc) was used to remove external free ANTS/DPX from LUVs with entrapped contents. LUVs were diluted to 0.5 mM and used to measure the leakage activity by addition of aliquots of peptides. Leakage was measured after 3 h incubation. 10% Triton was used as the positive control to measure the maximum leakage of the vesicle. Fluorescence emission spectra were recorded using excitation and emission wavelength of 350 nm and 510 nm for ANTS/DPX using a BioTek Synergy H1 Hybrid Multi-Mode Reader.
(§4) Table 4 illustrates peptide concentration-induced 50% ANTS/DPX liposome leakage. 0.5 mM POPC and 3POPC/1POPG vesicles were fixed and incubated with titrated peptide concentration ([…]) each in phosphate buffered saline (1×, pH 7.4) and hydrochloric acid-adjusted phosphate buffered saline (1×, pH 4.8). The values are shown as lipid per peptide. †N-terminus is free, C-terminus: —W—NH2.

[2] = Tryptophan fluorescent binding assay, POPC vesicles; conditions: 50 μM peptide, PBS pH 7.4, lipid per peptide
Method: (§5) In brief, 50 μM peptides were fixed and incubated with titrated POPC vesicles (black) or 3POPC/1POPG vesicles (grey) at concentrations of 0, 12.5, 25, 50, 100, 250, 500, 1000, 2500, and 5000 μM in phosphate buffered saline (1×, pH 7.4). The lipid concentration that causes 50% peptide binding was determined using a tryptophan fluorescent binding assay and the values are shown as lipid per peptide.
as §2
(§6) Peptides (50 μM) and POPC/POPG LUVs (600 μM) were prepared in 10 mM phosphate buffer (pH 7.0). The solutions were incubated and measured after 60 minutes. Excitation was fixed at 280 nm (slit 9 nm) and emission was collected from 300 to 450 nm (slit 9 nm). The spectra were recorded using a Synergy H1 Hybrid Multi-Mode Reader (FIG. 3A) and Cytation™ 5 Cell Imaging Multi-Mode Reader (FIG. 2) from BioTek and were averaged over 3 scans.
(§7) Table 3 illustrates the lipid concentration-induced 50% peptide binding onto a liposome. 50 μM peptide was fixed and incubated with titrated lipid (POPC vesicles or 3POPC/1POPG vesicles) at concentrations of 0, 12.5, 25, 50, 100, 250, 500, 1000, 2500, and 5000 μM in phosphate buffered saline (1×, pH 7.4). The lipid concentration that causes 50% peptide binding was determined using tryptophan fluorescent binding assay and the values are shown as lipid per peptide. †N-terminus is free, C-terminus: —W—NH2.

[3] = ANTS/DPX liposome leakage assay, POPC vesicles; assay type: biochemical; conditions: 0.5 mM vesicles; for Peptide Concentration-induced 50% ANTS/DPX leakage at pH 4.8, POPC Vesicle: pH 4.8, lipid per peptide; for Peptide Concentration-induced 50% ANTS/DPX leakage at pH 7.4, POPC Vesicle: pH 7.4, lipid per peptide
Method: as §1, §2, §3, §4

[4] = tested on: HMLER-shEcad (human breast cancer stem cell); experiment: cells; conditions: 72 h
From the text: (§8) HMLER (human mammary endothelial cancer cells), HMLER-shEcad (human mammary endothelial cancer stem cells), and MCF-10A (healthy human mammary endothelial) cells were maintained in Mammary Epithelial Cell Growth Medium (MEGM) with supplements and growth factors: bovine pituitary extract (BPE), hydrocortisone, human epidermal growth factor (hEGF), insulin, and gentamicin/amphotericin-B. HEK293T (human embryonic kidney cell), and U2OS (Homo sapiens bone osteosarcoma) cells were maintained in Dulbecco's Modified Eagle's Medium (DMEM) with a final concentration of 10% fetal bovine serum. The cells were grown in T75 flask at 310 K in a humidified atmosphere containing 5% CO2.
(§9) The colourimetric MTT (3-(4,5-dimethylthiazol-2-yl)-2,5-diphenyltetrazolium bromide) assay was used to determine the toxicity of the anticancer peptides and conventional anticancer drugs. 5×10^3 cells were seeded in each well of a 96-well microplate. The cells were incubated overnight. Elevated concentrations of the compounds (0, 0.1, 0.2, 0.4, 0.8, 1.6, 3.1, 6.3, 12.5, 25, 50 and 100 μM) were added and incubated for 72 hr with a total volume 200 μL. The stock solutions of the compounds were prepared as 5 mM solutions in DMSO and diluted using media or in pure water. The final concentration of DMSO in each well was either 0.5% or 0% and this amount was present in the untreated control. After 72 hr, 20 μL of a 4 mg/mL solution of MTT in PBS was added to each well, and the plate was incubated for an additional 4 hr. The MEGM/MTT mixture was aspirated and 100 μL of DMSO was added to dissolve the resulting purple formazan crystals. The absorbance of the solutions in each well was read at 550 nm wavelength. Absorbance values were normalized to either DMSO-containing or non DMSO-containing control wells and plotted as concentration of test compound versus % cell viability. IC50 values were interpolated from the resulting dose dependent curves.
(§10) The peptides were screened against several different human cell lines and their cytotoxicity were determined. Cell lines utilised include MCF-10A (human breast epithelial cell), HMLER (human breast cancer bulk cell), HMLER-shEcad (human breast cancer stem cell), HEK293T (human embryonic kidney cell), and U2OS (human bone osteosarcoma).

[5] = tested on: HMLER (human breast cancer bulk cell); experiment: cells; conditions: 72 h
From the text: as §8, §9, §10

[6] = tested on: HEK293T (human embryonic kidney cell); experiment: cells; conditions: 72 h
From the text: as §8, §9, §10

[7] = Tryptophan fluorescent binding assay, 3POPC/1POPG vesicles; conditions: 50 μM peptide, PBS pH 7.4, lipid per peptide
Method: as §5, §2, §6, §7

[8] = tested on: U2OS (human bone osteosarcoma); conditions: 72 h
From the text: as §8, §9, §10

SMILES | Peptide Concentration-induced 50% ANTS/DPX leakage at pH 4.8, 3POPC/1POPG Vesicle [1] | Peptide Concentration-induced 50% ANTS/DPX leakage at pH 7.4, 3POPC/1POPG Vesicle [1] | Lipid Concentration-induced 50% Peptide Binding, POPC Vesicle [2] | Peptide Concentration-induced 50% ANTS/DPX leakage at pH 4.8, POPC Vesicle [3] | Peptide Concentration-induced 50% ANTS/DPX leakage at pH 7.4, POPC Vesicle [3] | IC50 [4] | IC50 [5] | IC50 [6] | Lipid Concentration-induced 50% Peptide Binding, 3POPC/1POPG Vesicle [7] | IC50 [8]
CC(C)C[C@H](NC(=O)CN)C(=O)N[C@@H](CC(C)C)C(=O)N[C@@H](CC(=O)O)C(=O)N[C@@H](CC(C)C)C(=O)N[C@@H](CC(C)C)C(=O)N[C@@H](CCC(=O)O)C(=O)N[C@@H](CC(C)C)C(=O)N[C@@H](CC(C)C)C(=O)N[C@@H](CC(C)C)C(=O)N[C@@H](Cc1c[nH]cn1)C(=O)N[C@@H](C)C(=O)N[C@@H](C)C(=O)NCC(=O)N[C@@H](Cc1c[nH]c2ccccc12)C(N)=O [DEH] | 193 L/P | 548 L/P | 0.75 L/P | 63 L/P | 620 L/P | 3.6 ± 0.42 µM | 5.35 ± 1.91 µM | 10.5 ± 4.67 µM | 1.50 L/P | 36.5 ± 3.92 µM
CC(C)C[C@H](NC(=O)CN)C(=O)N[C@@H](CC(C)C)C(=O)N[C@@H](CCCCN)C(=O)N[C@@H](CC(C)C)C(=O)N[C@@H](CC(C)C)C(=O)N[C@@H](CCCCN)C(=O)N[C@@H](CC(C)C)C(=O)N[C@@H](CC(C)C)C(=O)N[C@@H](CC(C)C)C(=O)N[C@@H](CCCCN)C(=O)N[C@@H](C)C(=O)N[C@@H](C)C(=O)NCC(=O)N[C@@H](Cc1c[nH]c2ccccc12)C(N)=O [KKK] | 81 L/P | 115 L/P | 1.25 L/P | 156 L/P | 1369 L/P | 1.35 ± 0.4 µM | 1.57 ± 0.24 µM | 3.7 ± 0.14 µM | 1.70 L/P | 9.65 ± 1.2 µM
CC(C)C[C@H](NC(=O)CN)C(=O)N[C@@H](CC(C)C)C(=O)N[C@@H](CC(=O)O)C(=O)N[C@@H](CC(C)C)C(=O)N[C@@H](CC(C)C)C(=O)N[C@@H](CCC(=O)O)C(=O)N[C@@H](CC(C)C)C(=O)N[C@@H](CC(C)C)C(=O)N[C@@H](CC(C)C)C(=O)N[C@@H](CCC(=O)O)C(=O)N[C@@H](C)C(=O)N[C@@H](C)C(=O)NCC(=O)N[C@@H](Cc1c[nH]c2ccccc12)C(N)=O [DEE] | 164 L/P | 597 L/P | 0.63 L/P | 110 L/P | 644 L/P | 6.05 ± 2.76 µM | 5.55 ± 0.35 µM | 9.91 ± 0.44 µM | 0.38 L/P | 61 ± 1.41 µM
CC(C)C[C@H](NC(=O)CN)C(=O)N[C@@H](CC(C)C)C(=O)N[C@@H](CC(=O)O)C(=O)N[C@@H](CC(C)C)C(=O)N[C@@H](CC(C)C)C(=O)N[C@@H](Cc1c[nH]cn1)C(=O)N[C@@H](CC(C)C)C(=O)N[C@@H](CC(C)C)C(=O)N[C@@H](CC(C)C)C(=O)N[C@@H](CCC(=O)O)C(=O)N[C@@H](C)C(=O)N[C@@H](C)C(=O)NCC(=O)N[C@@H](Cc1c[nH]c2ccccc12)C(N)=O [DHE] | 469 L/P | 581 L/P | 1.00 L/P | 58 L/P | 566 L/P | 2.8 ± 0.14 µM | 3.75 ± 0.92 µM | 11.1 ± 1.91 µM | 0.72 L/P | 17.2 ± 1.06 µM
